The results in this text go back to US20170088545A1, “CARBOXAMIDE INHIBITORS” (Norvartis AG, priority 2014, published 2017).

The target of one assay is Smurf-2 (Homo sapiens, UniProt Q9HAU4). The assay can be described thus: HECT E3 ligase autoubiquitinylation TR-FRET assay, Smurf-2. The note with it: 45 min incubation, 8-point dose-response. The format is biochemical. An excerpt:
(§1) To determine the HECT E3 ligase selectivity of the compounds, a panel of biochemical HECT E3 ligase autoubiquitinylation assays was employed (Smurf-1, Smurf-2, WWP1, WWP2, ITCH, Nedd4, Nedd4L and E6AP). The conjugation of ubiquitin to a protein substrate is a multistep process. In an initial ATP-requiring step, a thioester bond is formed between the carboxyl terminus of ubiquitin and an internal cystein residue of the ubiquitin-activating enzyme (E1). Activated ubiquitin is then transferred to a specific cystein residue of an ubiquitin-conjugating enzyme (E2). E2s donate ubiquitin to a HECT E3 ligase (E3) from which it is transferred to the substrate protein. HECT E3 ligases can auto-ubiquitinylate. This event is detected in the TR-FRET (Time-Resolved Fluorescence Resonance Energy Transfer) assay used in this panel. The reaction mix contains E1, E2, tagged-E3, biotin-conjugated ubiquitin, the compound and ATP in a suitable buffer and is incubated for 45 minutes to allow auto-ubiquitinylation of the E3 ligase. To measure the extent of ubiquitinylated E3 ligase by TR-FRET, the donor fluorophore Europium cryptate (Eu3+ cryptate), conjugated to streptavidin which subsequently binds to biotinylated ubiquitin, and the modified allophycocyanin XL665 (HTRF® primary acceptor fluorophore) coupled to a tag-specific antibody (HA, His or GST), which recognizes the respective E3 ligase fusion proteins, are added after the reaction is complete. When these two fluorophores are brought together by a biomolecular interaction (in this case ubiquitinylation of the E3 ligase), a portion of the energy captured by the Cryptate during excitation is released through fluorescence emission at 620 nm, while the remaining energy is transferred to XL665. This energy is then released by XL665 as specific fluorescence at 665 nm. Light at 665 nm is emitted only through FRET with Europium.
(§2) Test and reference compounds are prepared at 180× [final] in 90% DMSO, and diluted 1:3 in 90% DMSO.
(§3) For the biochemical assay panel, 50 nl of the test compounds, reference compounds and buffer/DMSO control are transferred to the respective wells of a 384-well white GREINER “SMALL VOLUME” PS plate. The assay panel is run at room temperature on a Biomek FX liquid handling workstation. To the assay plates containing 50 nl compound or control solutions in 90% DMSO, 4.5 ul of E3 ligase solution were added per well, followed by 4.5 ul of the pre-incubated E1/E2/Ub mix or the pre-diluted ubiquitin (LOW control). Plates are shaken vigorously after each addition. In this assay the compound concentrations range from 3 nM to 10 uM in an 8-point dose-response curve.
(§4) After 45 min of incubation the ubiquitinylation reactions were stopped by adding 4.5 ul 2 mM NEM, immediately followed by 4.5 ul of a detection solution including the XL665-labeled antibody and the streptavidin-coupled europium to give a total volume of 18 ul. After an incubation time of 45 min in the dark, the plates are transferred into the Pherastar fluorescence reader to measure the TR-FRET signal.

In a further assay the target is Smurf-1 (Homo sapiens, UniProt Q9HCE7). The assay can be described thus: HECT E3 ligase autoubiquitinylation TR-FRET assay, Smurf-1. Format: biochemical. The conditions noted are these: 45 min incubation, 8-point dose-response.
Sequence of Smurf-1 (Q9HCE7 whole entry): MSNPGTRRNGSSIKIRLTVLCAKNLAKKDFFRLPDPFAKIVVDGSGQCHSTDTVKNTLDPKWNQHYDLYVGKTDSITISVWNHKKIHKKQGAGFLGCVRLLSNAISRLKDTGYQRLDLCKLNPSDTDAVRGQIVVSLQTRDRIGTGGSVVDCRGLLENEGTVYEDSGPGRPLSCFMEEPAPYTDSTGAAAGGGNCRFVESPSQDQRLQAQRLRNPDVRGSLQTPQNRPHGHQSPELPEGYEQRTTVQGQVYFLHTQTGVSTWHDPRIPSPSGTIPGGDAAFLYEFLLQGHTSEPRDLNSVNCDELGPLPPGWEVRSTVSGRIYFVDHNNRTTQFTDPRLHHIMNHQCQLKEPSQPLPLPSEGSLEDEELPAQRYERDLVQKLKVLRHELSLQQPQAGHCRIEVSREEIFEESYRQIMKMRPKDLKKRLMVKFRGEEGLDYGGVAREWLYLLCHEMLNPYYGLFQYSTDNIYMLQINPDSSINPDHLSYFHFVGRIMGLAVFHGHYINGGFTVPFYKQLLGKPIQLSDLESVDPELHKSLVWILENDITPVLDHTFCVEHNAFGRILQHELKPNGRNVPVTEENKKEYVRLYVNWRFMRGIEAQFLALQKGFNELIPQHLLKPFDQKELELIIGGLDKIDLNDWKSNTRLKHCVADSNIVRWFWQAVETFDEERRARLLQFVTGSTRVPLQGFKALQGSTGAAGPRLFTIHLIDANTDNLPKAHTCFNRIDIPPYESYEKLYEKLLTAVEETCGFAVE
Excerpt: as §1, §2, §3, §4
A general note: Time-resolved FRET reads energy transfer from a long-lived donor to a nearby acceptor.

The IC50 is the concentration needed to halve the response being measured. A low value points to greater potency.

Sequence of Smurf-2 (Q9HAU4 whole entry, species assumed): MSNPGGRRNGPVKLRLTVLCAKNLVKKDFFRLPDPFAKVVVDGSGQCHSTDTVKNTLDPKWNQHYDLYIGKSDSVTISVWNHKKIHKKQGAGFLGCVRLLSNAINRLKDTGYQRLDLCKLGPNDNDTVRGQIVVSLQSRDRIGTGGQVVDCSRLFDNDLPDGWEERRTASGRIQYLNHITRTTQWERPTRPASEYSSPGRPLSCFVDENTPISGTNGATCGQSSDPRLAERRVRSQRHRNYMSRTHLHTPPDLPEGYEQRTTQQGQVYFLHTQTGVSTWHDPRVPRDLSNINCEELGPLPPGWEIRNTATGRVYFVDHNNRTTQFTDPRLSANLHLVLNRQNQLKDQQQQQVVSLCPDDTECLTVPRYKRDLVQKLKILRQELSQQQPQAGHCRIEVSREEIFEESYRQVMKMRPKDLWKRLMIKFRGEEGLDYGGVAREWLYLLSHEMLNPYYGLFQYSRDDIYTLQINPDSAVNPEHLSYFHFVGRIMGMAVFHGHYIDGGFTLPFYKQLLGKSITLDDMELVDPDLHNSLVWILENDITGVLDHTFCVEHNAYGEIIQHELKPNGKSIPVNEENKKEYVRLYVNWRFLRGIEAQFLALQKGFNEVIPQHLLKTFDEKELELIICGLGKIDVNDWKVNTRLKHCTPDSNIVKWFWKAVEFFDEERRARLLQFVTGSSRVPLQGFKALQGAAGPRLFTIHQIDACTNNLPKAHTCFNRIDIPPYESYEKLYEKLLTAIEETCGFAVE

As to `COc1ccc(-c2onc(C(=O)Nc3c(C)n(C)n(C4CCCCC4)c3=O)c2C)cc1C` [Example 048, N-(2-Cyclohexyl-1,5-dimethyl-3-oxo-2,3-dihydro-1H-pyrazol-4-yl)-5-(4-methoxy-3-methylphenyl)-4-methylisoxazole-3-carboxamide], the IC50 worked out at 2400 nM against Smurf-2 and 7.7 nM at Smurf-1.

Turning to `Cc1c(C(=O)Nc2c(C)n(C)n(C3CCCCC3)c2=O)noc1-c1ccc(Cl)cc1` [Example 049, 5-(4-Chlorophenyl)-N-(2-cyclohexyl-1,5-dimethyl-3-oxo-2,3-dihydro-1H-pyrazol-4-yl)-4-methylisoxazole-3-carboxamide], the IC50 came out at 6750 nM against Smurf-2 and 23.5 nM at Smurf-1.

On to `COc1ccccc1-c1onc(C(=O)Nc2c(C)n(C)n(C3CCCCC3)c2=O)c1C` [Example 051, N-(2-Cyclohexyl-1,5-dimethyl-3-oxo-2,3-dihydro-1H-pyrazol-4-yl)-5-(2-methoxyphenyl)-4-methylisoxazole-3-carboxamide], for which the results for the IC50 on Smurf-2 and against Smurf-1 were more than 20100 nM and 560 nM, respectively.

In the case of `Cc1c(C(=O)Nc2c(C)n(C)n(C3CCCCC3)c2=O)noc1-c1ccc2occc2c1` [Example 054, 5-(Benzofuran-5-yl)-N-(2-cyclohexyl-1,5-dimethyl-3-oxo-2,3-dihydro-1H-pyrazol-4-yl)-4-methylisoxazole-3-carboxamide], the values for the IC50 on Smurf-2 and against Smurf-1 were 5000 nM and 10.8 nM, respectively.

With `Cc1c(C(=O)Nc2c(C)n(C)n(C3CCCCC3)c2=O)noc1-c1cccc(F)c1F` [Example 055, N-(2-Cyclohexyl-1,5-dimethyl-3-oxo-2,3-dihydro-1H-pyrazol-4-yl)-5-(2,3-difluorophenyl)-4-methylisoxazole-3-carboxamide], the IC50 at Smurf-2 is more than 20200 nM; against Smurf-1, 109 nM.

As to `Cc1c(C(=O)Nc2c(C)n(C)n(C3CCCCC3)c2=O)noc1-c1ccc(Cl)cc1F` [Example 057, 5-(4-Chloro-2-fluorophenyl)-N-(2-cyclohexyl-1,5-dimethyl-3-oxo-2,3-dihydro-1H-pyrazol-4-yl)-4-methylisoxazole-3-carboxamide], the IC50 amounted to 7500 nM against Smurf-2 and 24 nM against Smurf-1.

On to `Cc1c(C(=O)Nc2c(C)n(C)n(-c3ccccc3F)c2=O)noc1-c1ccc2c(c1)CCO2` [Example 062, 5-(2,3-Dihydrobenzofuran-5-yl)-N-(2-(2-fluorophenyl)-1,5-dimethyl-3-oxo-2,3-dihydro-1H-pyrazol-4-yl)-4-methylisoxazole-3-carboxamide], for which the IC50 against Smurf-2 is more than 20200 nM; against Smurf-1, 965 nM.

In the case of `Cc1c(C(=O)Nc2c(C)n(C)n(C3CCCCC3)c2=O)noc1-c1ccc(Cl)cc1C1CC1` [Example 069, 5-(4-Chloro-2-cyclopropylphenyl)-N-(2-cyclohexyl-1,5-dimethyl-3-oxo-2,3-dihydro-1H-pyrazol-4-yl)-4-methylisoxazole-3-carboxamide], the IC50 came to 3200 nM against Smurf-2 and 5 nM against Smurf-1.

In the case of `COc1c(C)cccc1-c1onc(C(=O)Nc2c(C)n(C)n(C3CCCCC3)c2=O)c1C` [Example 070, N-(2-Cyclohexyl-1 ,5-dimethyl-3-oxo-2,3-dihydro-1H-pyrazol-4-yl)-5-(2-methoxy-3-methylphenyl)-4-methylisoxazole-3-carboxamide], the IC50 worked out at 17800 nM on Smurf-2 and 33 nM against Smurf-1.

With `Cc1c(C(=O)Nc2c(C)n(C)n(C3CCCCC3)c2=O)noc1-c1ccc(OCC2CC2)cc1Cl` [Example 072, 5-(2-Chloro-4-(cyclopropylmethoxy)phenyl)-N-(2-cyclohexyl-1,5-dimethyl-3-oxo-2,3-dihydro-1H-pyrazol-4-yl)-4-methylisoxazole-3-carboxamide], the IC50 on Smurf-2 is more than 20200 nM; on Smurf-1, 98 nM.

`Cc1c(C(=O)Nc2c(C)n(C)n(C3CCCCC3)c2=O)noc1-c1cccc2c1OCCC2` [Example 075, 5-(Chroman-8-yl)-N-(2-cyclohexyl-1,5-dimethyl-3-oxo-2,3-dihydro-1H-pyrazol-4-yl)-4-methyl isoxazole-3-carboxamide]: the IC50 at Smurf-2 is more than 20200 nM; on Smurf-1 it was 895 nM.

As for `Cc1cc(C)c(-c2onc(C(=O)Nc3c(C)n(C)n(-c4ccccc4F)c3=O)c2C)c(C)c1` [Example 083, N-(2-(2-fluorophenyl)-1,5-dimethyl-3-oxo-2,3-dihydro-1H-pyrazol-4-yl)-5-mesityl-4-methylisoxazole-3-carboxamide], the IC50 against Smurf-2 was more than 20200 nM; against Smurf-1 it was 2300 nM.

On to `COc1ccccc1-c1onc(C(=O)Nc2c(C)n(C)n(-c3ccccc3F)c2=O)c1C` [Example 084, N-(2-(2-fluorophenyl)-1,5-dimethyl-3-oxo-2,3-dihydro-1H-pyrazol-4-yl)-5-(2-methoxyphenyl)-4-methylisoxazole-3-carboxamide], for which the IC50 on Smurf-2 is more than 20200 nM; against Smurf-1, 7150 nM.

For `COc1ccc(-c2onc(C(=O)Nc3c(C)n(C)n(C4CCCCC4)c3=O)c2C2CC2)c(C(F)(F)F)c1` [Example 085, N-(2-Cyclohexyl-1,5-dimethyl-3-oxo-2,3-dihydro-1H-pyrazol-4-yl)-4-cyclopropyl-5-(4-methoxy-2-(trifluoromethyl)phenyl)isoxazole-3-carboxamide], the results for the IC50 at Smurf-2 and at Smurf-1 were more than 20200 nM and 50.5 nM, respectively.

Turning to `COc1ccc(-c2onc(C(=O)Nc3c(C)n(C)n(C4CCCCC4)c3=O)c2C2CC2)c(F)c1` [Example 086, N-(2-Cyclohexyl-1,5-dimethyl-3-oxo-2,3-dihydro-1H-pyrazol-4-yl)-4-cyclopropyl-5-(2-fluoro-4-methoxyphenyl) isoxazole-3-carboxamide], the IC50 on Smurf-2 is more than 20200 nM; at Smurf-1 it was 260 nM.
